Assay results published in ChEMBL document CHEMBL3046617, “Effects of fungicides on in vitro spore germination and mycelial growth of the phytopathogens Leptosphaeria maculans and L. biglobosa (phoma stem canker of oilseed rape)” (2010).
Values after ≈ are worked out from the molar mass of the structure shown. Active and inactive are the calls of the source. No cut-off for these calls is given here.

Key:
[1] = system: Plenodomus biglobosus; experiment: Antifungal activity against Leptosphaeria biglobosa assessed as inhibition of conidia germination at 4 ug/ml after 22 hr; type: functional
[2] = system: Plenodomus lingam; experiment: Antifungal activity against Leptosphaeria maculans assessed as inhibition of conidia germination at 4 ug/ml after 22 hr; type: functional
[3] = system: Plenodomus biglobosus; experiment: Antifungal activity against Leptosphaeria biglobosa assessed as reduction of conidia production at 1 to 4 ug/ml after 2 weeks; type: functional, organism-based
[4] = system: Plenodomus biglobosus; experiment: Antifungal activity against Leptosphaeria biglobosa assessed as viable ascospore at 1 to 4 ug/ml after 1 week; type: functional, organism-based
[5] = system: Plenodomus lingam; experiment: Antifungal activity against Leptosphaeria maculans assessed as viable ascospore at 1 to 4 ug/ml after 1 week; type: functional, organism-based
[6] = system: Plenodomus biglobosus; experiment: Antifungal activity against Leptosphaeria biglobosa assessed as reduction of germ tube length at 4 ug/ml after 22 hr relative to control; type: functional; design: scale not given: the % may be the effect or the level left
[7] = system: Plenodomus biglobosus; experiment: Antifungal activity against Leptosphaeria biglobosa assessed as reduction of germ tube length at 2 ug/ml after 22 hr relative to control; type: functional; design: scale not given: the % may be the effect or the level left
[8] = system: Plenodomus biglobosus; experiment: Antifungal activity against Leptosphaeria biglobosa assessed as reduction of germ tube length at 1 ug/ml after 22 hr relative to control; type: functional; design: scale not given: the % may be the effect or the level left
[9] = system: Plenodomus lingam; experiment: Antifungal activity against Leptosphaeria maculans assessed as reduction of germ tube length at 4 ug/ml after 22 hr relative to control; type: functional; design: scale not given: the % may be the effect or the level left
[10] = system: Plenodomus lingam; experiment: Antifungal activity against Leptosphaeria maculans assessed as reduction of germ tube length at 2 ug/ml after 22 hr relative to control; type: functional; design: scale not given: the % may be the effect or the level left
[11] = system: Plenodomus lingam; experiment: Antifungal activity against Leptosphaeria maculans assessed as reduction of germ tube length at 1 ug/ml after 22 hr relative to control; type: functional; design: scale not given: the % may be the effect or the level left
[12] = system: Plenodomus lingam; experiment: Antifungal activity against Leptosphaeria maculans assessed as viable conidia at 2 to 4 ug/ml after 1 week; type: functional, organism-based
[13] = system: Plenodomus biglobosus; experiment: Antifungal activity against Leptosphaeria biglobosa assessed as viable conidia at 2 to 4 ug/ml after 1 week; type: functional, organism-based
[14] = system: Plenodomus lingam; experiment: Antifungal activity against Leptosphaeria maculans assessed as reduction of conidia production at 1 to 4 ug/ml after 2 weeks; type: functional, organism-based
[15] = system: Plenodomus lingam; experiment: Antifungal activity against Leptosphaeria maculans assessed as ascospore germination at 1 to 4 ug/ml after 22 hr; type: functional
[16] = system: Plenodomus biglobosus; experiment: Antifungal activity against Leptosphaeria biglobosa assessed as ascospore germination at 1 to 4 ug/ml after 22 hr; type: functional
[17] = system: Plenodomus biglobosus; experiment: Antifungal activity against Leptosphaeria biglobosa assessed as ascospore germination at 0.25 to 1 ug/ml after 22 hr; type: functional
[18] = system: Plenodomus lingam; experiment: Antifungal activity against Leptosphaeria maculans assessed as reduction of germ tube length at 0.5 ug/ml after 22 hr relative to control; type: functional; design: scale not given: the % may be the effect or the level left
[19] = system: Plenodomus lingam; experiment: Antifungal activity against Leptosphaeria maculans assessed as reduction of germ tube length at 0.25 ug/ml after 22 hr relative to control; type: functional; design: scale not given: the % may be the effect or the level left
[20] = system: Plenodomus biglobosus; experiment: Antifungal activity against Leptosphaeria biglobosa assessed as inhibition of conidia germination at 0.25 to 1 ug/ml after 22 hr; type: functional, organism-based
[21] = system: Plenodomus lingam; experiment: Antifungal activity against Leptosphaeria maculans assessed as inhibition of conidia germination at 0.25 to 1 ug/ml after 22 hr; type: functional, organism-based
[22] = system: Plenodomus lingam; experiment: Antifungal activity against Leptosphaeria maculans assessed as reduction of conidia production at 0.25 to 1 ug/ml after 2 weeks; type: functional, organism-based
[23] = system: Plenodomus biglobosus; experiment: Antifungal activity against Leptosphaeria biglobosa assessed as reduction of conidia production at 0.25 to 1 ug/ml after 2 weeks; type: functional, organism-based
[24] = system: Plenodomus biglobosus; experiment: Antifungal activity against Leptosphaeria biglobosa assessed as viable ascospore at 0.25 to 1 ug/ml after 1 week; type: functional, organism-based
[25] = system: Plenodomus lingam; experiment: Antifungal activity against Leptosphaeria maculans assessed as viable ascospore at 0.25 to 1 ug/ml after 1 week; type: functional, organism-based
[26] = system: Plenodomus biglobosus; experiment: Antifungal activity against Leptosphaeria biglobosa assessed as reduction of germ tube length at 0.5 ug/ml after 22 hr relative to control; type: functional; design: scale not given: the % may be the effect or the level left
[27] = system: Plenodomus biglobosus; experiment: Antifungal activity against Leptosphaeria biglobosa assessed as reduction of germ tube length at 0.25 ug/ml after 22 hr relative to control; type: functional; design: scale not given: the % may be the effect or the level left
[28] = system: Plenodomus biglobosus; experiment: Antifungal activity against Leptosphaeria biglobosa assessed as inhibition of mycelial growth after 7 days; type: functional; settings: 168 h, read-out: ED50 (the source's name)
[29] = system: Plenodomus lingam; experiment: Antifungal activity against Leptosphaeria maculans assessed as inhibition of mycelial growth after 17 days; type: functional; settings: 408 h, read-out: ED50 (the source's name)
[30] = system: Plenodomus biglobosus; experiment: Antifungal activity against Leptosphaeria biglobosa assessed as viable conidia at 0.25 to 1 ug/ml after 1 week; type: functional, organism-based
[31] = system: Plenodomus lingam; experiment: Antifungal activity against Leptosphaeria maculans assessed as viable conidia at 0.25 to 1 ug/ml after 1 week; type: functional, organism-based
[32] = system: Plenodomus lingam; experiment: Antifungal activity against Leptosphaeria maculans assessed as ascospore germination at 0.25 to 1 ug/ml after 22 hr; type: functional
[33] = system: Plenodomus lingam; experiment: Antifungal activity against Leptosphaeria maculans; type: functional; settings: read-out: ED50 (the source's name)
[34] = system: Plenodomus biglobosus; experiment: Antifungal activity against Leptosphaeria biglobosa assessed as inhibition of conidia germination at 0.75 to 3 ug/ml after 22 hr; type: functional, organism-based
[35] = system: Plenodomus lingam; experiment: Antifungal activity against Leptosphaeria maculans assessed as inhibition of conidia germination at 0.75 to 3 ug/ml after 22 hr; type: functional, organism-based
[36] = system: Plenodomus lingam; experiment: Antifungal activity against Leptosphaeria maculans assessed as reduction of conidia production at 0.75 to 3 ug/ml after 2 weeks; type: functional, organism-based
[37] = system: Plenodomus biglobosus; experiment: Antifungal activity against Leptosphaeria biglobosa assessed as reduction of conidia production at 0.75 to 3 ug/ml after 2 weeks; type: functional, organism-based
[38] = system: Plenodomus biglobosus; experiment: Antifungal activity against Leptosphaeria biglobosa assessed as viable ascospore at 0.75 to 3 ug/ml after 1 week; type: functional, organism-based
[39] = system: Plenodomus lingam; experiment: Antifungal activity against Leptosphaeria maculans assessed as viable ascospore at 0.75 to 3 ug/ml after 1 week; type: functional, organism-based
[40] = system: Plenodomus biglobosus; experiment: Antifungal activity against Leptosphaeria biglobosa assessed as reduction of germ tube length at 3 ug/ml after 22 hr relative to control; type: functional; design: scale not given: the % may be the effect or the level left
[41] = system: Plenodomus biglobosus; experiment: Antifungal activity against Leptosphaeria biglobosa assessed as reduction of germ tube length at 1.5 ug/ml after 22 hr relative to control; type: functional; design: scale not given: the % may be the effect or the level left
[42] = system: Plenodomus biglobosus; experiment: Antifungal activity against Leptosphaeria biglobosa assessed as reduction of germ tube length at 0.75 ug/ml after 22 hr relative to control; type: functional; design: scale not given: the % may be the effect or the level left
[43] = system: Plenodomus lingam; experiment: Antifungal activity against Leptosphaeria maculans assessed as reduction of germ tube length at 3 ug/ml after 22 hr relative to control; type: functional; design: scale not given: the % may be the effect or the level left
[44] = system: Plenodomus lingam; experiment: Antifungal activity against Leptosphaeria maculans assessed as reduction of germ tube length at 1.5 ug/ml after 22 hr relative to control; type: functional; design: scale not given: the % may be the effect or the level left
[45] = system: Plenodomus lingam; experiment: Antifungal activity against Leptosphaeria maculans assessed as reduction of germ tube length at 0.75 ug/ml after 22 hr relative to control; type: functional; design: scale not given: the % may be the effect or the level left
[46] = system: Plenodomus biglobosus; experiment: Antifungal activity against Leptosphaeria biglobosa assessed as viable conidia at 0.75 to 3 ug/ml after 1 week; type: functional, organism-based
[47] = system: Plenodomus lingam; experiment: Antifungal activity against Leptosphaeria maculans assessed as viable conidia at 0.75 to 3 ug/ml after 1 week; type: functional, organism-based
[48] = system: Plenodomus lingam; experiment: Antifungal activity against Leptosphaeria maculans assessed as ascospore germination at 0.75 to 3 ug/ml after 22 hr; type: functional
[49] = system: Plenodomus biglobosus; experiment: Antifungal activity against Leptosphaeria biglobosa assessed as ascospore germination at 0.75 to 3 ug/ml after 22 hr; type: functional

## CCCCNC(=O)n1c(NC(=O)OC)nc2ccccc21 [BENOMYL]
[1]
  inhibition at 4 µg/mL: 15%
[2]
  inhibition at 4 µg/mL: > 80%
[3]
  Activity: Active
[4]
  Activity: inactive
[5]
  Activity: inactive
[6]
  Activity: 81.6%
[7]
  Activity: 85.5%
[8]
  Activity: 4.5%
[9]
  Activity: 65.8%
[10]
  Activity: 68.3%
[11]
  Activity: 46.8%
[12]
  Activity: Active
[13]
  Activity: Active
[14]
  Activity: inactive
[15]
  Activity: 96%
[16]
  Activity: 94%

## C[Si](Cn1cncn1)(c1ccc(F)cc1)c1ccc(F)cc1 [FLUSILAZOLE]
[17]
  Activity: 94%
[18]
  Activity: 22.1%
[19]
  Activity: 15.9%
[20]
  inhibition: Active
[21]
  inhibition: Active
[22]
  Activity: inactive
[23]
  Activity: Active
[24]
  Activity: inactive
[25]
  Activity: inactive
[8]
  Activity: 53.8%
[26]
  Activity: 56.3%
[27]
  Activity: 56.9%
[11]
  Activity: 22.5%
[28]
  EC50: 0.67 µg/mL (≈ 2.12 µM)
[29]
  EC50: 0.27 µg/mL (≈ 0.856 µM)
[30]
  Activity: inactive
[31]
  Activity: inactive
[32]
  Activity: 96%

## OC(Cn1cncn1)(c1ccc(F)cc1)c1ccccc1F (stereo not drawn) [FLUTRIAFOL]
[33]
  EC50: 0.45 µg/mL (≈ 1.49 µM)

## CC(C)(C)C(O)(CCc1ccc(Cl)cc1)Cn1cncn1 (stereo not drawn) [TEBUCONAZOLE]
[34]
  inhibition: Active
[35]
  inhibition: Active
[36]
  Activity: inactive
[37]
  Activity: Active
[38]
  Activity: inactive
[39]
  Activity: inactive
[40]
  Activity: 69.6%
[41]
  Activity: 63.4%
[42]
  Activity: 64.3%
[43]
  Activity: 43.2%
[44]
  Activity: 36.7%
[45]
  Activity: 44%
[28]
  EC50: 1.45 µg/mL (≈ 4.71 µM)
[29]
  EC50: 0.34 µg/mL (≈ 1.1 µM)
[46]
  Activity: inactive
[47]
  Activity: inactive
[48]
  Activity: 96%
[49]
  Activity: 94%
